Patent publication US20120270251A1, “INHIBITION OF THE ACTIVITY OF KINASE AND SYNTHETASE ENZYMES” (CSIR, priority 2009, published 2012)

Biological target: Mycobacterium tuberculosis shikimate kinase (Mycobacterium tuberculosis, UniProt P9WPY3)
Test: Shikimate kinase steady-state kinetics, ATP vs C8D-ATP
Type: biochemical
Description: Hexokinase from Saccharomyces cerevisiae Type F-300 (Sigma, H4502) and Acetate kinase from E. coli (Sigma, A7437) were purchased. The human adenylate kinase (AK1) gene in vector pLIG-SC1 was obtained from the Structural Genomics Consortium (code AK1A). The His-tagged AK1 was produced in Escherichia coli Origami (DE3) and purified using the Bio-Rad Profinia Purification System. […] The Mycobacterium tuberculosis shikimate kinase gene in pET15b (Novagen) was obtained from the group of Chris Abell, Cambridge University, UK. The his-tagged MtSK was produced in E. coli BL21 (DE3) and purified using the Bio-Rad Profinia Purification System. The pure protein was dialysed against 50 mM Tris (pH 7.5) and 1,000 mM NaCl. Adenylylated (GS12) and deadenylylated (GS0) glutamine synthetase were prepared as outlined below.
The final volumes were 100 μl, and the reactions were incubated at 37° C. for 20 minutes, before being terminated by the addition of 5 μl 200 mM EDTA.
The results are reflected in FIGS. 19 to 25. […] The best-fit to the data was obtained for the specified kinetic model using the non-linear regression algorithms as outlined using the GraphPad Prism® 5 software. […] These response curves were then used to define the KIE by the conventional estimation of KIE from KIE=vH/vD. The KIED was also determined using the following function: […]

[1] = tested model: Allosteric sigmoidal

Chain of Mycobacterium tuberculosis shikimate kinase (P9WPY3 whole entry): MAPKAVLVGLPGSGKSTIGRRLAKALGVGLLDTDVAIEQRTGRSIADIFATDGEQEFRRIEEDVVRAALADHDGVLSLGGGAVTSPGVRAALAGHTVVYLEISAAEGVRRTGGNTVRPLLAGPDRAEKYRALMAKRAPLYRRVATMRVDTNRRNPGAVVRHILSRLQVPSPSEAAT

Row | Structure (SMILES) | fit to kinetic model [1] | fit to kinetic model (tested model: Michaelis-Menton) | KIEvmax (KIE at maximum enzyme activity)
1 | Nc1ncnc2c1ncn2[C@@H]1O[C@H](COP(=O)(O)OP(=O)(O)OP(=O)(O)O)[C@@H](O)[C@H]1O [ATP, adenosine triphosphate, reference compound] | Allosteric sigmoidal | Fit ambiguous | 
2 | Nc1ncnc2c1ncn2[C@@H]1O[C@H](COP(=O)(O)OP(=O)(O)OP(=O)(O)O)[C@@H](O)[C@H]1O [C8D-ATP] | Allosteric sigmoidal | Fit ambiguous | 1
